Results reported in patent US20240409585A1, “MACROCYCLIC IMMUNOMODULATORS” (priority 2021, published 2024).
Bridge positions count the residues as written; N and C are the ends. Square brackets hold non-standard residues; d marks the D form. Peptide text beside a SMILES is read from it. * marks the point of attachment. ξ: configuration not given here. Phe(4-COOH) = N[C@@H](Cc1ccc(C(=O)O)cc1)C(=O)O; Bip = N[C@@H](Cc1ccc(-c2ccccc2)cc1)C(=O)O; Phe(3-OMe) = COc1cccc(C[C@H](N)C(=O)O)c1; Phe(4-CN) = N#Cc1ccc(C[C@H](N)C(=O)O)cc1; Phe(3-Me) = Cc1cccc(C[C@H](N)C(=O)O)c1; Val(3-OH) = CC(C)(O)[C@H](N)C(=O)O; 3Pal = N[C@@H](Cc1cccnc1)C(=O)O; 4Pal = N[C@@H](Cc1ccncc1)C(=O)O; Cha = N[C@@H](CC1CCCCC1)C(=O)O; Cit = NC(=O)NCCC[C@H](N)C(=O)O; Ile(3ξ) = CCC(C)[C@H](N)C(=O)O; Thr(3ξ) = CC(O)[C@H](N)C(=O)O; Dap(Me) = CNC[C@H](N)C(=O)O; Carboxymethyl = O=C(O)C*; NMeA = CN[C@@H](C)C(=O)O; Nle = CCCC[C@H](N)C(=O)O; Orn = NCCC[C@H](N)C(=O)O; Dab = NCC[C@H](N)C(=O)O; Dap = NC[C@H](N)C(=O)O

Molecular target: T1, PE-labeled human PD-L1-Ig binding to Jurkat cell line over-expressing human PD-1 (Jurkat-PD-1) (Homo sapiens, UniProt Q15116)
T1 construct: expressed in transfected cells; host or cells: Jurkat
Experiment: Jurkat-PD-1 Cell Binding High-Content Screening Assay (CBA): Method 1
Settings: Jurkat-hPD-1 cells, PE-labeled PD-L1-Ig 20 nM final; read-out: Jurkat HPDL1 PD1 IC50 (uM) (Method 1)

T1 sequence (Q15116 25-288): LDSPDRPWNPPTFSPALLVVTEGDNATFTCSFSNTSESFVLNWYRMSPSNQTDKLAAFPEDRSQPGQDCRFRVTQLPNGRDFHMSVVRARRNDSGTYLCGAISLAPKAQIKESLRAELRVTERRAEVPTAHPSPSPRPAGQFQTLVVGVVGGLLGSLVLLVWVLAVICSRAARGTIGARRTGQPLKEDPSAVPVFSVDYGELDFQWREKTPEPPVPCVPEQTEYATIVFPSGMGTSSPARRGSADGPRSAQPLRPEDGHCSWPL

Row | SMILES | IC50 [µM]
1 | CCCC[C@@H]1NC(=O)[C@H](CCCNC(=N)N)NC(=O)[C@@H](CC(C)C)NC(=O)[C@H](C)N(C)C(=O)[C@H]([C@@H](C)CC)NC(=O)[C@H](Cc2ccc(-c3ccccc3)cc2)NC(=O)[C@H](C(C)C)NC(=O)[C@H](Cc2c[nH]c3ccccc23)NC(=O)[C@H](CC(=O)O)NC(=O)[C@H](Cc2ccc(O)cc2)NC(=O)[C@H](CC(N)=O)NC(=O)CSC[C@@H](C(=O)N[C@@H](C)C(N)=O)NC(=O)[C@H]([C@@H](C)O)NC(=O)[C@H](C(C)C)NC1=O [Compound 1498] ({CH2CO}-NYDWV[Bip]I[NMeA][dL]R[Nle]VTCA-NH2; thioether N-14) | 0.12
2 | Cc1cccc(C[C@@H]2NC(=O)[C@H](CC(=O)O)NC(=O)[C@H](Cc3ccc(C(=O)O)cc3)NC(=O)[C@H](Cc3ccc(OCC(=O)O)cc3)NC(=O)CSC[C@@H](C(=O)N[C@@H](CO)C(N)=O)NC(=O)[C@H](CO)NC(=O)[C@H](C(C)C)NC(=O)[C@H](CC(C)C)NC(=O)[C@H](CCN)NC(=O)[C@@H](CC(C)C)NC(=O)[C@H](C)N(C)C(=O)[C@H](C(C)C)NC(=O)[C@H](Cc3ccc(-c4ccccc4)cc3)NC(=O)[C@H](CC(C)C)NC2=O)c1 [Compound 2111] ({CH2CO}-Y(Carboxymethyl)[Phe(4-COOH)]D[Phe(3-Me)]L[Bip]V[NMeA][dL][Dab]LVSCS-NH2; thioether N-14) | 0.01
3 | CC(C)C[C@@H]1NC(=O)[C@H](CCN)NC(=O)[C@@H](CC(C)C)NC(=O)[C@H](C)N(C)C(=O)[C@H](CCCN)NC(=O)[C@H](Cc2ccc(-c3ccccc3)cc2)NC(=O)[C@H](C(C)C)NC(=O)[C@H](Cc2c[nH]c3ccccc23)NC(=O)[C@H](CC(=O)O)NC(=O)[C@H](Cc2ccc(O)cc2)NC(=O)[C@H](Cc2ccccc2)NC(=O)CSC[C@@H](C(=O)N[C@@H](C)C(N)=O)NC(=O)[C@H]([C@@H](C)O)NC(=O)[C@H](C(C)C)NC1=O [Compound 1121] ({CH2CO}-FYDWV[Bip][Orn][NMeA][dL][Dab]LVTCA-NH2; thioether N-14) | 0.06
4 | CC(C)C[C@@H]1NC(=O)[C@H](CCN)NC(=O)[C@@H](CC(C)C)NC(=O)[C@H](C)N(C)C(=O)[C@H](C(C)C)NC(=O)[C@H](Cc2ccc(-c3ccccc3)cc2)NC(=O)[C@H](C(C)C)NC(=O)[C@H](Cc2c[nH]c3ccccc23)NC(=O)[C@H](CC(=O)O)NC(=O)[C@H](Cc2ccc(OCC(=O)O)cc2)NC(=O)[C@H](CC(N)=O)NC(=O)CSC[C@@H](C(=O)N[C@@H](C)C(N)=O)NC(=O)[C@H]([C@@H](C)O)NC(=O)[C@H](C(C)C)NC1=O [Compound 1377] ({CH2CO}-NY(Carboxymethyl)DWV[Bip]V[NMeA][dL][Dab]LVTCA-NH2; thioether N-14) | 0.02
5 | Cc1cccc(C[C@@H]2NC(=O)[C@H](CC(=O)O)NC(=O)[C@H](Cc3ccc(O)cc3)NC(=O)[C@H](CC(N)=O)NC(=O)CSC[C@@H](C(=O)N[C@H](C)C(N)=O)NC(=O)[C@H](CCC(=O)O)NC(=O)[C@H](C(C)C)NC(=O)[C@H](CC3CCCCC3)NC(=O)[C@H](CCN)NC(=O)[C@@H](CC(C)C)NC(=O)[C@H](C)N(C)C(=O)[C@H](CCCNC(N)=O)NC(=O)[C@H](Cc3ccc(-c4ccccc4)cc3)NC(=O)[C@H](C(C)(C)O)NC2=O)c1 [Compound 1710] ({CH2CO}-NYD[Phe(3-Me)][Val(3-OH)][Bip][Cit][NMeA][dL][Dab][Cha]VEC[dA]-NH2; thioether N-14) | 0.11
6 | CC(C)C[C@@H]1NC(=O)[C@H](Cc2c[nH]c3ccccc23)NC(=O)[C@H](CC(=O)O)NC(=O)[C@H](Cc2ccc(C(=O)O)cc2)NC(=O)[C@H](Cc2ccc(OCC(=O)O)cc2)NC(=O)CSC[C@@H](C(N)=O)NC(=O)[C@H](CO)NC(=O)[C@H](C(C)C)NC(=O)[C@H](CC2CCCCC2)NC(=O)[C@H](CCN)NC(=O)[C@@H](CC(C)C)NC(=O)[C@H](C)N(C)C(=O)[C@H](C(C)C)NC(=O)[C@H](Cc2ccc(-c3ccccc3)cc2)NC1=O [Compound 1426] ({CH2CO}-Y(Carboxymethyl)[Phe(4-COOH)]DWL[Bip]V[NMeA][dL][Dab][Cha]VSC-NH2; thioether N-14) | 0.01
7 | Cc1cccc(C[C@@H]2NC(=O)[C@H](CC(=O)O)NC(=O)[C@H](Cc3ccc(C(=O)O)cc3)NC(=O)[C@H](CN)NC(=O)CSC[C@@H](C(=O)N[C@@H](C)C(N)=O)NC(=O)[C@H]([C@@H](C)O)NC(=O)[C@H](C(C)C)NC(=O)[C@H](CC(C)C)NC(=O)[C@H](CCN)NC(=O)[C@@H](CC(C)C)NC(=O)[C@H](C)N(C)C(=O)[C@H](CCCNC(=N)N)NC(=O)[C@H](Cc3ccc(-c4ccccc4)cc3)NC(=O)[C@H](C(C)C)NC2=O)c1 [Compound 1457] ({CH2CO}-[Dap][Phe(4-COOH)]D[Phe(3-Me)]V[Bip]R[NMeA][dL][Dab]LVTCA-NH2; thioether N-14) | 0.01
8 | CNC[C@@H]1NC(=O)CSC[C@@H](C(=O)N[C@@H](C)C(N)=O)NC(=O)[C@H](C(C)O)NC(=O)[C@H](C(C)C)NC(=O)[C@H](CC(C)C)NC(=O)[C@H](CCN)NC(=O)[C@@H](CC(C)C)NC(=O)[C@H](C)N(C)C(=O)[C@H](CCCNC(N)=O)NC(=O)[C@H](Cc2ccc(-c3ccccc3)cc2)NC(=O)[C@H](C(C)C)NC(=O)[C@H](Cc2c[nH]c3ccccc23)NC(=O)[C@H](CC(=O)O)NC(=O)[C@H](Cc2ccc(O)cc2)NC1=O (stereo partly drawn) [Compound 2034] ({CH2CO}-[Dap(Me)]YDWV[Bip][Cit][NMeA][dL][Dab]LV[Thr(3ξ)]CA-NH2; thioether N-14) | 0.06
9 | CCC(C)[C@@H]1NC(=O)[C@H](Cc2ccc(-c3ccccc3)cc2)NC(=O)[C@H](C(C)C)NC(=O)[C@H](Cc2c[nH]c3ccccc23)NC(=O)[C@H](CC(N)=O)NC(=O)[C@H](Cc2ccc(OCC(=O)O)cc2)NC(=O)[C@H](Cc2ccncc2)NC(=O)CSC[C@@H](C(=O)N[C@@H](CCCCN)C(N)=O)NC(=O)[C@H](C(C)O)NC(=O)[C@H](C(C)C)NC(=O)[C@H](CC(C)C)NC(=O)[C@H](CC(N)=O)NC(=O)[C@@H](CC(C)C)NC(=O)[C@H](C)N(C)C1=O (stereo partly drawn) [Compound 2055] ({CH2CO}-[4Pal]Y(Carboxymethyl)NWV[Bip][Ile(3ξ)][NMeA][dL]NLV[Thr(3ξ)]CK-NH2; thioether N-14) | 0.95
10 | CC(C)C[C@@H]1NC(=O)[C@H](CCN)NC(=O)[C@@H](CC(C)C)NC(=O)[C@H](C)N(C)C(=O)[C@H](CCCNC(N)=O)NC(=O)[C@H](Cc2ccc(-c3ccccc3)cc2)NC(=O)[C@H](C(C)C)NC(=O)[C@H](Cc2c[nH]c3ccccc23)NC(=O)[C@H](CC(=O)O)NC(=O)[C@H](Cc2ccc(C#N)cc2)NC(=O)[C@H](Cc2ccncc2)NC(=O)CSC[C@@H](C(=O)N[C@@H](C)C(N)=O)NC(=O)[C@H]([C@@H](C)O)NC(=O)[C@H](C(C)C)NC1=O [Compound 1402] ({CH2CO}-[4Pal][Phe(4-CN)]DWV[Bip][Cit][NMeA][dL][Dab]LVTCA-NH2; thioether N-14) | 0.02
11 | CC(C)C[C@@H]1NC(=O)[C@H](CC(N)=O)NC(=O)[C@@H](CC(C)C)NC(=O)[C@H](C)N(C)C(=O)[C@H](C(C)C)NC(=O)[C@H](Cc2ccc(-c3ccccc3)cc2)NC(=O)[C@H](CCN)NC(=O)[C@H](Cc2c[nH]c3ccccc23)NC(=O)[C@H](CC(=O)O)NC(=O)[C@H](Cc2ccc(O)cc2)NC(=O)[C@H](Cc2ccccc2)NC(=O)CSC[C@@H](C(=O)N[C@@H](C)C(N)=O)NC(=O)[C@H](CO)NC(=O)[C@H](CC(=O)O)NC1=O [Compound 2026] ({CH2CO}-FYDW[Dab][Bip]V[NMeA][dL]NLDSCA-NH2; thioether N-14) | 0.12
12 | COc1cccc(C[C@@H]2NC(=O)[C@H](CC(=O)O)NC(=O)[C@H](Cc3ccc(O)cc3)NC(=O)[C@H](Cc3ccccc3)NC(=O)CSC[C@@H](C(=O)NCC(N)=O)NC(=O)[C@H](CO)NC(=O)[C@H](C(C)C)NC(=O)[C@H](CC(C)C)NC(=O)[C@H](CC(N)=O)NC(=O)[C@@H](CC(C)C)NC(=O)[C@H](C)N(C)C(=O)[C@H](C(C)C)NC(=O)[C@H](Cc3ccc(-c4ccccc4)cc3)NC(=O)[C@H](CC(C)C)NC2=O)c1 [Compound 1516] ({CH2CO}-FYD[Phe(3-OMe)]L[Bip]V[NMeA][dL]NLVSCG-NH2; thioether N-14) | 0.02
13 | CCC(C)[C@@H]1NC(=O)[C@H](Cc2ccc(-c3ccccc3)cc2)NC(=O)[C@H](C(C)C)NC(=O)[C@H](Cc2c[nH]c3ccccc23)NC(=O)[C@H](CC(=O)O)NC(=O)[C@H](Cc2ccc(O)cc2)NC(=O)[C@H](Cc2cccnc2)NC(=O)CSC[C@@H](C(=O)N[C@@H](C)C(N)=O)NC(=O)[C@H](C(C)O)NC(=O)[C@H](C(C)C)NC(=O)[C@H](CC2CCCCC2)NC(=O)[C@H](CCN)NC(=O)[C@@H](CC(C)C)NC(=O)[C@H](C)N(C)C1=O (stereo partly drawn) [Compound 2052] ({CH2CO}-[3Pal]YDWV[Bip][Ile(3ξ)][NMeA][dL][Dab][Cha]V[Thr(3ξ)]CA-NH2; thioether N-14) | 0.02
14 | CC(C)C[C@@H]1NC(=O)[C@H](Cc2c[nH]c3ccccc23)NC(=O)[C@H](CC(=O)O)NC(=O)[C@H](Cc2ccc(O)cc2)NC(=O)[C@H](Cc2ccccc2)NC(=O)CSC[C@@H](C(=O)NCC(N)=O)NC(=O)[C@H](CO)NC(=O)[C@H](C(C)C)NC(=O)[C@H](CC(C)C)NC(=O)[C@H](CC(N)=O)NC(=O)[C@@H](CC(C)C)NC(=O)[C@H](C)N(C)C(=O)[C@H](CCC(=O)O)NC(=O)[C@H](Cc2ccc(-c3ccccc3)cc2)NC1=O [Compound 1510] ({CH2CO}-FYDWL[Bip]E[NMeA][dL]NLVSCG-NH2; thioether N-14) | 0.06
15 | CC(C)C[C@@H]1NC(=O)[C@H](CCN)NC(=O)[C@@H](CC(C)C)NC(=O)[C@H](C)N(C)C(=O)[C@H](CCCNC(N)=O)NC(=O)[C@H](Cc2ccc(-c3ccccc3)cc2)NC(=O)[C@H](C(C)C)NC(=O)[C@H](Cc2c[nH]c3ccccc23)NC(=O)[C@H](CC(=O)O)NC(=O)[C@H](Cc2ccc(O)cc2)NC(=O)[C@H](Cc2ccccc2)NC(=O)CSC[C@@H](C(=O)N[C@@H](C)C(N)=O)NC(=O)[C@H](C(C)O)NC(=O)[C@H](C(C)C)NC1=O (stereo partly drawn) [Compound 2033] ({CH2CO}-FYDWV[Bip][Cit][NMeA][dL][Dab]LV[Thr(3ξ)]CA-NH2; thioether N-14) | 0.03
